Patent US20240181092A1, “DIAGNOSTIC METHODS OF PROSTATE CANCER” (NOVARTIS AG, priority 2021, published 2024)
“Also recorded” adds a separate entry of the source. Where two headings read alike, the source gives them in different places.

How the values were obtained:
[1] = cited from earlier work
[2] = versus urea-based PET compounds; cited from earlier work
[3] = Phase I, 20 prostate cancer patients (n=5 primary staging, n=15 mCRPC), approx. 370 MBq i.v.; cited from earlier work
PSMA [4] = target: T1, PSMA (Homo sapiens, UniProt Q04609); parameters: The [^18F]CTT1057 Phase-I study in 20 prostate cancer patients; from tissue; host or cells: tumour lesions in prostate cancer patients, imaged in vivo by PET; results quoted from Behr et al 2019 and Behr et al 2017; conditions: cited from earlier work
T1 sequence (Q04609 whole entry): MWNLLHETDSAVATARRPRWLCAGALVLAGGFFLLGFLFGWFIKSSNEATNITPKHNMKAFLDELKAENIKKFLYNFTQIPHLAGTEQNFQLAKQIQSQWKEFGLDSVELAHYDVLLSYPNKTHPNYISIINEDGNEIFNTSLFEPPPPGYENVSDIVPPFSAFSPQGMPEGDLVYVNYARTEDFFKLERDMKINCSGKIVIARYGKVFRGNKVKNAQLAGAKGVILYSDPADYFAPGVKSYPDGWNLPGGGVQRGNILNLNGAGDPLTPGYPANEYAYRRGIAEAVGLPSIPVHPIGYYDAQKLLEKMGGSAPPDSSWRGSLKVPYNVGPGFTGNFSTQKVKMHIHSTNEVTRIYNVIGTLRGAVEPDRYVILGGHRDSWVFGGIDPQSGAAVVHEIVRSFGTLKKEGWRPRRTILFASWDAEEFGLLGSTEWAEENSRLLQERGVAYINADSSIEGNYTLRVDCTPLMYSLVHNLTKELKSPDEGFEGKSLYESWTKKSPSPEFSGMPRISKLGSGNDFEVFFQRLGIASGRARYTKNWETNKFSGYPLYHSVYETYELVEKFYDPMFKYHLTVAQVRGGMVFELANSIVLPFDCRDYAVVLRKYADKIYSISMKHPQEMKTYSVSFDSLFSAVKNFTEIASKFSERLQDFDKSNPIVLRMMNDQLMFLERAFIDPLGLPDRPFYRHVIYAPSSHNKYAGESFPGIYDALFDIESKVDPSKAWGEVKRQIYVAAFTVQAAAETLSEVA

PSMA [5] = target: T1, PSMA; conditions: phosphoramidate scaffold, irreversible binding; cited from earlier work
[6] = Human dosimetry in the Phase I study; format: in vivo; conditions: i.v. administration of 370 MBq
Source text: For PET diagnostic radiopharmaceuticals, only a single administration is required, usually intravenously. The investigational PET radiopharmaceutical [^18F]CTT1057 will be administered accordingly, as a single intravenous (i.v.) dose of approximately 370 MBq (266-407 MBq). […] Eur J Nucl Med Mol Imaging; 42:328-54). Human dosimetry was studied in the Phase I study. The effective dose was estimated at 0.023±0.007 mSv/MBq, which is in line as well with the effective dose of the commercial product [18F]FDG (0.019 mSv/MBq) according to the EANM guideline (Boellaard R, Delgado-Bolton R, Oyen WJG, et al (2015) FDG PET/CT: EANM procedure guidelines for tumour imaging: version 2.0. Eur J Nucl Med Mol Imaging; 42:328-54) and in other publications (0.020-0.025 mSv/MBq) (Kaushik A, Jaimini A, Tripathi M, et al (2015) Estimation of radiation dose to patients from (18) FDG whole body PET/CT investigations using dynamic PET scan protocol. Indian J Med Res; 142:721-31), as well as the effective dose of other PSMA PET agents (Behr SC, Aggarwal R, VanBrocklin HF, et al (2019) Phase I Study of CTT1057, an 18F-Labeled Imaging Agent with Phosphoramidate Core Targeting Prostate-Specific Membrane Antigen in Prostate Cancer. J Nucl Med; 60(7):910-6). The radiation dose estimated from an i.v. administration of 370 MBq of [18F]CTT1057 is 8.51 mSV. […]

[7] = human dosimetry, Phase I study; cited from earlier work
[8] = retrospective analysis of 1007 participants; cited from earlier work
prostate cancer tumors = conditions: cited from earlier work

SMILES: OC[C@H]1OC(O)[C@H]([18F])[C@@H](O)[C@@H]1O (stereo partly shown) [[18F]FDG, [18F]Fluorodeoxyglucose]
- effective dose ([1]; according to the EANM guideline): 0.019 mSv/MBq
- effective dose ([1]; other publications (Kaushik et al 2015)): 0.020-0.025 mSv/MBq

SMILES: O=C(O)CC[C@H](NP(=O)(O)OCCC[C@H](NC(=O)CC[C@H](NC(=O)CCCCCNC(=O)c1ccc([18F])cc1)C(=O)O)C(=O)O)C(=O)O [[^18F]CTT1057]
- exposure to kidneys and salivary glands [2]: lower exposure to kidneys and salivary glands
- safety and tolerability [3]: acceptable safety profile without any radiotracer-related adverse reactions; also recorded: safe and well tolerated; also recorded: acceptable safety profile, without any radiotracer-related adverse reactions; also recorded: study has shown an acceptable safety profile without any radiotracer-related
- sensitivity of detection of metastatic lesions versus conventional imaging (PSMA [4]; Phase I study): higher sensitivity
- image quality versus [68Ga]Ga-PSMA-11 PET (PSMA [4]; another smaller study (Behr et al 2017)): qualitatively similar
- image quality on a Visual Analog Scale (VAS) of 1 to 100 (PSMA [4]; approx. 370 MBq i.v., 1=nondiagnostic, 100=perfect study, rated by 2 Nuclear Medicine physicians): 76±5.4
- binding affinity to PSMA (PSMA [5]): irreversibly binds to PSMA with high nanomolar affinity
- radiation dose estimated from an i.v. administration [6]: 8.51 mSV
- effective dose [7]: 0.023±0.007 mSv/MBq

SMILES: O=C([O-])CN(CCN(CC(=O)[O-])Cc1cc(CCC(=O)NCCCCCC(=O)NCCCC[C@H](NC(=O)N[C@@H](CCC(=O)O)C(=O)O)C(=O)O)ccc1[O-])Cc1cc(CCC(=O)O)ccc1[O-].[68Ga+3].[OH3+] [[^68Ga]Ga-PSMA-11]
- tolerability, adverse events following infusion [8]: well tolerated with no adverse events following infusion
- detection rates versus [18F]Fluciclovine (prostate cancer tumors; after radical prostatectomy, PSA <2.0 ng/ml, per-patient and per-region basis (Calais et al 2018)): superior
- overall detection rate for prostate cancer recurrence versus [18F]Fluciclovine (prostate cancer tumors; larger prospective head-to-head study (Pernthaler et al 2019)): no statistical differences
